What was measured:
[1] = tested on: 5-HT release in the brain; settings: literature reports; cited from earlier work
[2] = molecular target: T1, recombinant rat α2β2γ2 GABAA receptors (Rattus norvegicus, UniProt P23576); assay: Whole-cell patch-clamp, modulation of GABA (EC20)-induced currents in transfected HEK 293 cells, α2β2γ2; format: cell-based
T1 construct: expressed in transfected cells; host or cells: HEK 293
Description: (§1) For electrophysiological recording HEK-293 cells were passaged and replated on 12-mm glass coverslips located in 9.6-cm plastic dishes filled with 10 ml of Minimum Essential Medium (MEM, Gibco) supplemented with 158 mg/l sodium bicarbonate, 2 mM glutamine (Gibco), 100 U/ml penicillin-streptomycin (Gibco), and 10% foetal calf serum (Gibco). Cultures were maintained at 37° C. in a humidified […]/5% CO2 atmosphere for 2-3 days.
(§2) Transfection with recombinant rat GABAA receptors was carried out as described in detail (Korpi and Lüddens, 1993, Lüddens and Korpi, 1995b). Briefly, HEK 293 cells were transfected in triple combinations using the phosphate precipitation method with rat GABAA receptor cDNAs in eukaryotic expression vectors (Pritchett, 1990) for the α, β and γ subunits. For optimal receptor expression, final concentrations (μg vector DNA per 9.6 cm tissue culture plate) were: α1, 2; α2 4.8; α3, 1.2; α4, 10; α5, 0.8; β2, 0.4; and γ2S, 0.3. The γ2S variant is abbreviated γ2 in the remainder of the text. To identify transfected cells all subunit combinations were co-transfected with 1 μg per plate of pNI-EGFP.
(§3) Two days after transfection single coverslips containing HEK 293 cells were placed in a recording chamber mounted on the movable stage of a fluorescence microscope (Olympus IX70) and perfused with a defined saline solution containing (in mM): 130 NaCl, 5.4 KCl, 2 CaCl2, 2 MgSO4, 10 glucose, 5 sucrose, and 10 HEPES (free acid), pH adjusted to 7.35 with about 35 mM NaOH. Transfected cells were identified by their green fluorescence due to the expression of the pNI-EGFP vector and ligand-mediated membrane currents of these cells were studied in the whole-cell configuration of the patch-clamp technique (Hamil et al., 1981). Patch-clamp pipettes were pulled from hard borosilicate capillary glass (0.5 mm ID, 1.5 mm OD, Vitrex, Science Products GmbH, Hofheim, Germany) using a horizontal puller (Sutter Instruments, CA, Model P-97) in a multi-stage process.
(§4) Seal resistances >1 GΩ were routinely obtained by applying gentle suction to the pipettes. Membrane rupture was monitored electrically as an increase in capacity. Pipette capacitance, membrane capacitance, and series resistance were electronically compensated to achieve minimal capacitative transients. A series resistance compensation of >60% was regularly used.
(§5) In all cells recorded the presence of the γ2 subunit in the heteropentamere was monitored by the application of 1 μM zolpidem plus the EC20 of GABA before testing the experimental drugs.
(§6) Responses of the cells were recorded by a patch-clamp amplifier (EPC-8, HEKA-Electronic, Lambrecht, Germany) in conjunction with a standard personal computer and the pClamp 8.1 software package (Axon Instruments, Foster City, Calif.). The standard holding-potential for the cells was −40 mV. Whole cell currents were low-pass filtered by an eight-pole Bessel filter at 5 or 3 kHz before being digitised by a Digidata 1322A interface (Axon Instruments, Foster City, Calif.) and recorded by the computer at a sampling rate of at least […].
(§7) Efficacy, potency, and GABAA receptor a subunit specificity of the new compound ELB139 was tested with the whole cell configuration of the patch-clamp technique by applying increasing drug concentration together with GABA of the approximate EC20 on green fluorescing cells. BZ binding site specificity of the new compound was tested on the same cells in an identical experimental setting with additionally applying 10 μM Ro15-1788.

[3] = molecular target: T2, recombinant rat α4β2γ2 GABAA receptors (Rattus norvegicus, UniProt P28471); assay: Whole-cell patch-clamp, modulation of GABA (EC20)-induced currents in transfected HEK 293 cells, α4β2γ2; format: cell-based; settings: α4-containing receptors; diazepam up to 1 μM, ELB139 at all concentrations tested
T2 construct: expressed in transfected cells; host or cells: HEK 293
Description: as §1, §2
as §3, with “Patch-clamp pipettes were pulled from hard borosilicate capillary glass (0.5 mm ID, 1.5 mm OD, Vitrex, Science Products GmbH, Hofheim, Germany) using a horizontal puller (Sutter Instruments, CA, Model P-97) in a multi-stage process.” left out
Seal resistances >1 GΩ were routinely obtained by applying gentle suction to the pipettes. Membrane rupture was monitored electrically as an increase in capacity. […]
In all cells recorded the presence of the γ2 subunit in the heteropentamere was monitored by the application of 1 μM zolpidem plus the EC20 of GABA before testing the experimental drugs. […]

[4] = molecular target: T3, recombinant rat α5β2γ2 GABAA receptors (Rattus norvegicus, UniProt P19969); assay: Whole-cell patch-clamp, modulation of GABA (EC20)-induced currents in transfected HEK 293 cells, α5β2γ2; format: cell-based
T3 construct: expressed in transfected cells; host or cells: HEK 293
Description: as §1, §2, §3, §4, §5, §6, §7

[5] = molecular target: T4, recombinant rat α1β2γ2 GABAA receptors (Rattus norvegicus, UniProt P62813); assay: Whole-cell patch-clamp, modulation of GABA (EC20)-induced currents in transfected HEK 293 cells, α1β2γ2; format: cell-based
T4 construct: expressed in transfected cells; host or cells: HEK 293
Description: as §1, §2, §3, §4, §5, §6, §7

[6] = molecular target: T5, recombinant rat α3β2γ2 GABAA receptors (Rattus norvegicus, UniProt P20236); assay: Whole-cell patch-clamp, modulation of GABA (EC20)-induced currents in transfected HEK 293 cells, α3β2γ2; format: cell-based
T5 construct: expressed in transfected cells; host or cells: HEK 293
Description: as §1, §2, §3, §4, §5, §6, §7

[7] = tested on: female Wistar rats, MK-801-induced stereotypies, hyperactivity and ataxia; assay: MK-801-induced behaviour, rat model of psychosis (Example 1); format: in vivo; settings: 0.5 mg/kg i.p. 1 h prior to test; MK-801 0.2 mg/kg i.p.; p<0.001
Description: (§8) The behaviour induced by the NMDA antagonist MK-801 is generally accepted as a rat model of psychosis. MK-801 induces stereotypies, hyperactivity and ataxia in rats after intraperitoneal administration.
Locomotor activity of the rats is recorded by the MotiTest Apparatus (TSE, Bad Homburg, Germany). The test area consisted of a squared arena ([…] with protective plexiglass walls (20 cm of height) where rats could freely move. Horizontal movements were recorded by 32 infrared photocells arranged along the bottom of each wall of the arena. Vertical movements (rearings) were recorded by a horizontal row of 32 infrared photocells 12 cm above the floor. The following parameters are measured by the computer program “ActiMot” (TSE, Bad Homburg, Germany): • active time [s] and total distance travelled [m]
(§9) Stereotypies, divided into stereotyped sniffing and other stereotypies, and ataxia are scored by the experimenter every five minutes for one hour (12 intervals) according to the method described by Andiné et al. (1999). The scores of the 12 intervals are added for each parameter.
The day of experiment the female rats are placed in the laboratory and receive the test compound, the reference substance or vehicle at the appropriate time prior to test. MK-801 0.2 mg/kg is intraperitoneally administered 10 minutes prior to test.
(§10) At the beginning of the test the rats are placed in the centre of the squared arena of the MotiTest apparatus. Behaviour of the rats is recorded for one hour. After each run animals are removed and the boxes thoroughly cleaned and dried.

[8] = tested on: female Wistar rats, MK-801-induced stereotypies, hyperactivity and ataxia; assay: MK-801-induced psychosis-related behaviour and reversibility by flumazenil (Example 7); format: in vivo, rat
Description: Apart from the haloperidol rats which received haloperidol 30 minutes and MK-801 10 minutes prior to the test, the other test groups received haloperidol, ELB139 or vehicle 60 minutes prior to test, saline or flumazenil 20 minutes prior to test and MK-801 10 minutes prior to test.
as §8
Locomotor activity of the rats is recorded by the MotiTest Apparatus (TSE, Bad Homburg, Germany). The test area consisted of a squared arena (45×45 cm) with protective plexiglass walls (20 cm of height) where rats could freely move. Horizontal movements were recorded by 32 infrared photocells arranged along the bottom of each wall of the arena. Vertical movements (rearings) were recorded by a horizontal row of 32 infrared photocells 12 cm above the floor. The following parameters were measured by the computer program “ActiMot” (TSE, Bad Homburg, Germany): • 1. active time [s] • 2. total distance travelled [m]
as §9
The day of experiment the female rats are placed in the laboratory and receive the test compound, the reference substance or vehicle at the appropriate time prior to test. […]
as §10

alpha 2 receptors = alpha 2 receptors (UniProt P18508+P47869); settings: cited from earlier work
[9] = molecular target: alpha 5 containing receptors (UniProt P18508+P31644); settings: cited from earlier work
alpha 3 receptors = alpha 3 receptors (UniProt P18508+P34903); settings: cited from earlier work
[10] = molecular target: alpha 1 containing receptors (UniProt P14867+P18508); settings: cited from earlier work
male Wistar rats = assay: Rat forced swim test; format: in vivo; settings: 10 and 30 mg/kg p.o., 23, 5 and 1 h prior to testing
Description: All animals were treated with verum or vehicle three times: shortly after the habituation session (23 h), 5 and 1 h prior to testing. All drugs were administered orally with an application volume of 1 ml/kg.
The animals were tested in a glass tank (23×30 cm, height 40 cm) filled to a depth of 28 cm with water at 22° C. (the animals could not touch the bottom). The glass tank was illuminated indirectly and was surrounded by dark brown shading walls (distance from the tank 20 cm) to prevent the view on the experimenter. The experiments were performed between 14:00 and 17:00 hours and the method was in general performed as described (Porsolt et al., 1979; Lucki, 1997).
On the first experimental day, rats were gently placed in the water for a 15 min period of habituation. On removal from the water, they were placed in a standard plexiglass box, the floor covered with paper towels, under an infrared heater for 30 min to dry. The next day, they were once more placed gently in the glass tank and observed for 5 min. The behaviour of the animals was video-taped.
Following the experiment the video tapes were analysed manually and the duration of the following behaviours was recorded: Immobility: floating and making only those movements necessary to keep the nose above the water. […] Climbing: when rats strongly move their forepaws in and out of the water, usually against the walls.

[11] = haloperidol 0.5 mg/kg i.p. + flumazenil 5 mg/kg i.p.
[12] = haloperidol 0.5 mg/kg i.p., MK-801 0.1 mg/kg i.p.

T1 sequence (P23576 29-451): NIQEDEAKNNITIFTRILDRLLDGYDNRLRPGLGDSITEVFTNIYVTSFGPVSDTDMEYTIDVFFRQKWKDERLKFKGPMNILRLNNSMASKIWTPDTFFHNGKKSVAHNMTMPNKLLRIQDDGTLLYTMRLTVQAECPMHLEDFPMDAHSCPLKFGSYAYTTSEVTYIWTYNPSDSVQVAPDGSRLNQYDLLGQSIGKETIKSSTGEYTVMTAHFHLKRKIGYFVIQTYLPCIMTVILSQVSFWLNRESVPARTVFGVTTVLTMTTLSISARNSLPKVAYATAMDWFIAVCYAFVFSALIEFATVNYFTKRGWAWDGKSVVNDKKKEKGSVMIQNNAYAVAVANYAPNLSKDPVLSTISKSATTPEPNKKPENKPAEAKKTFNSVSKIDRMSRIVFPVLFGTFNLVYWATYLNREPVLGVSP
T3 sequence (P19969 32-464 limits assumed): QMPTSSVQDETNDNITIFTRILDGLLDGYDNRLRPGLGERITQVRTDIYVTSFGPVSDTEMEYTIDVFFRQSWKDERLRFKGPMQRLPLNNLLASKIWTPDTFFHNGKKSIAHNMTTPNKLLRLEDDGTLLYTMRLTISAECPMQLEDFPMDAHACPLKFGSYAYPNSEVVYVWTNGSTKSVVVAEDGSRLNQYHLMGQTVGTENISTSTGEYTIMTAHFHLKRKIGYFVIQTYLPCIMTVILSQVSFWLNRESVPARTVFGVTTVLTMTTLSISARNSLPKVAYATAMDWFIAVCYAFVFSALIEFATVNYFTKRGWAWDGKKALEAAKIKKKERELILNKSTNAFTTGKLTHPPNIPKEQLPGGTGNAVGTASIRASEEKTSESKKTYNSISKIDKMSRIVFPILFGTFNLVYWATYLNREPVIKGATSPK
T4 sequence (P62813 28-455): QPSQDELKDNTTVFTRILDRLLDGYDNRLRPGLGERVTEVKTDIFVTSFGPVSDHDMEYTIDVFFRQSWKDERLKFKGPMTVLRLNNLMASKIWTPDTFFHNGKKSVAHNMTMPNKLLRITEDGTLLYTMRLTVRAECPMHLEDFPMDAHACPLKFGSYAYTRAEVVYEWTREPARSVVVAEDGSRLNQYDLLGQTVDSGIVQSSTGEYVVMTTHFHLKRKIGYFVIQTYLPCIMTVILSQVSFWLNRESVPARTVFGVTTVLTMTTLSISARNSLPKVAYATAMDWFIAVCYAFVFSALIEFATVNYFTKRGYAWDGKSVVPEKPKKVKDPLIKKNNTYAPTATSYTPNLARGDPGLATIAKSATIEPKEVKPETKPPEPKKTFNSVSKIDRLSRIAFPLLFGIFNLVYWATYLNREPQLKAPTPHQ
T5 sequence (P20236 29-493): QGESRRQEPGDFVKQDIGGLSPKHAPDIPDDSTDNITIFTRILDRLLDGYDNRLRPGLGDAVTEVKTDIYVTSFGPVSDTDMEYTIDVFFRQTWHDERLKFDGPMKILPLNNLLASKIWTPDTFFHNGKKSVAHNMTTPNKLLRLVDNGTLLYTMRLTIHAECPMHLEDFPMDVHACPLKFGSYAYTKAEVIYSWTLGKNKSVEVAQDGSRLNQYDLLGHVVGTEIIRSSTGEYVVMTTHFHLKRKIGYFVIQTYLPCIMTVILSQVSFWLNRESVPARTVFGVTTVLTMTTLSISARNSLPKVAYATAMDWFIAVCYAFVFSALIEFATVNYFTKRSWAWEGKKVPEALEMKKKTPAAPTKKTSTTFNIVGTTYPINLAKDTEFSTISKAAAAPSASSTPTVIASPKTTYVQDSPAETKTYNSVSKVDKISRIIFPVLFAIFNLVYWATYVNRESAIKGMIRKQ
alpha 1 containing receptors, sequence (P14867 28-456): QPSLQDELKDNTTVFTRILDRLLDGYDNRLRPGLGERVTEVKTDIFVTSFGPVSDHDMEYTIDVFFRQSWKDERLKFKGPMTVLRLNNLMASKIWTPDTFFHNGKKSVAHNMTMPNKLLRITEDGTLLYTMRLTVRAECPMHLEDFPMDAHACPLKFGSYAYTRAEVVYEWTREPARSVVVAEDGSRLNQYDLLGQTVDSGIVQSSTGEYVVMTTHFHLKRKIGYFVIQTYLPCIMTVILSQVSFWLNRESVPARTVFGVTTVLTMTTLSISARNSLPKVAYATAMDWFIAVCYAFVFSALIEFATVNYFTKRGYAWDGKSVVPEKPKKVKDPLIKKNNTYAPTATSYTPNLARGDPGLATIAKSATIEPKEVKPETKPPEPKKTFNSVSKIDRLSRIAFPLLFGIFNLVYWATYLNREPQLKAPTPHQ
alpha 1 containing receptors, sequence (P63138 25-474 partner limits assumed): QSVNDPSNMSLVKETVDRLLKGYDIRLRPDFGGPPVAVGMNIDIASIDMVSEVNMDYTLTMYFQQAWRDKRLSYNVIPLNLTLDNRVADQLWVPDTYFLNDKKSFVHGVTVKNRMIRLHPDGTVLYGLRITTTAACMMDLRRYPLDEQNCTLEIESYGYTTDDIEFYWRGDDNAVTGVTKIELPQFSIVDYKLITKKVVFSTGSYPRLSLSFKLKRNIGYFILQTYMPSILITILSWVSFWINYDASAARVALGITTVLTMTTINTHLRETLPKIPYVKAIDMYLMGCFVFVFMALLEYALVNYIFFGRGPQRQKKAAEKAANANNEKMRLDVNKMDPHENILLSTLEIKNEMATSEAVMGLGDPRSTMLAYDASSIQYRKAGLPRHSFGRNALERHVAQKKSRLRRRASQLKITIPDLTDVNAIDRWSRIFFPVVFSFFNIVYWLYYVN
alpha 1 containing receptors, sequence (P18508 39-466): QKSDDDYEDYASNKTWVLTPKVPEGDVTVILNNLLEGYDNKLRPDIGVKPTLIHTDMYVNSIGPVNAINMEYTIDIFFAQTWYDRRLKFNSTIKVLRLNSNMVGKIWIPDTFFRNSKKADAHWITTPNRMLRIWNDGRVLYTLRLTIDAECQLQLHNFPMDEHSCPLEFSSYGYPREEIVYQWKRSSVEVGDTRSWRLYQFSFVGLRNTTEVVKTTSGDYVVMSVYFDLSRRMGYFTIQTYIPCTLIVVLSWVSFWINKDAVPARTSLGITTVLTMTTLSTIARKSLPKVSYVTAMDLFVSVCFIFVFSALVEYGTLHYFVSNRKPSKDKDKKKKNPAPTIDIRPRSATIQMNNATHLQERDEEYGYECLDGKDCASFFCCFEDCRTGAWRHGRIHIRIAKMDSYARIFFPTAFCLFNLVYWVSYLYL
alpha 3 receptors, sequence (P34903 29-492): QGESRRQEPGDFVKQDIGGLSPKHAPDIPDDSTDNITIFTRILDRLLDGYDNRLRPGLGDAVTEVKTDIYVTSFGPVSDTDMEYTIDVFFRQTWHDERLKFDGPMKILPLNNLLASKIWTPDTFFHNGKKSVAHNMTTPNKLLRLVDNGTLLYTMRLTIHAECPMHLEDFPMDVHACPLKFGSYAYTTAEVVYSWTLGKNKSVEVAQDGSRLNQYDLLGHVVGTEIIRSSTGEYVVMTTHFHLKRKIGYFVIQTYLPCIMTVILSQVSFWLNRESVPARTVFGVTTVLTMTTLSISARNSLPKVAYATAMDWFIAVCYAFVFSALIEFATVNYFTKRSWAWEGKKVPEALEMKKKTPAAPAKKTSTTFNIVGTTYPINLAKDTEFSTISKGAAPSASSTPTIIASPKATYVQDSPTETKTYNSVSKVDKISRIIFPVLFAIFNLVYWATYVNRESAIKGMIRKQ
alpha 3 receptors, sequence (P63138 25-474 partner limits assumed): as the sequence (P63138 25-474 partner limits assumed) above
alpha 3 receptors, sequence (P18508 39-466): as the sequence (P18508 39-466) above
T2 sequence (P28471 36-552): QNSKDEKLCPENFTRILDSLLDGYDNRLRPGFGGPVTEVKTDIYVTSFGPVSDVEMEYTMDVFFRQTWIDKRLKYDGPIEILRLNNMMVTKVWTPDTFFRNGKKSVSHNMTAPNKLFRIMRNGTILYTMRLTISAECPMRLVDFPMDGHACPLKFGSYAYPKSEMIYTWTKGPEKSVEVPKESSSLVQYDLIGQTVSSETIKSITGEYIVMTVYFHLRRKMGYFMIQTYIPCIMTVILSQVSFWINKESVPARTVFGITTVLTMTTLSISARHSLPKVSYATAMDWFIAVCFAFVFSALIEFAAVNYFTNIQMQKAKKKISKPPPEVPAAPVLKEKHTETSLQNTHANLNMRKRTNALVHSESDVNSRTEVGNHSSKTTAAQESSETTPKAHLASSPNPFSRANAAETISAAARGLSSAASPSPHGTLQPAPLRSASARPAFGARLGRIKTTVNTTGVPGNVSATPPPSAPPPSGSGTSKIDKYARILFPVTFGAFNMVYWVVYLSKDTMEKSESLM
alpha 2 receptors, sequence (P47869 29-451): as the sequence (P23576 29-451) above, with S88L, P174A, G330A counted along it
alpha 2 receptors, sequence (P63138 25-474 partner limits assumed): as the sequence (P63138 25-474 partner limits assumed) above
alpha 2 receptors, sequence (P18508 39-466): as the sequence (P18508 39-466) above

NC(=O)N1c2ccccc2C=Cc2ccccc21 [Carbamazepine]
effect on 5-HT release / extracellular 5-HT in the brain [1]: increase

CN1C(=O)CN=C(c2ccccc2)c2cc(Cl)ccc21 [Diazepam, reference compound]
concentration at which positive current modulations were first measurable ([2]; α2 containing receptors): below 0.1 μM | maximal agonism, potentiation of GABA-induced current ([2]; α2β2γ2, at 1 μM diazepam): 1.8 fold | Potentiation* (Diazepam) ([2]; α2β2γ2, with GABA EC20, graphically determined): 1.8 ± 0.6 | modulation of GABA-induced currents (in words) [3]: no significant modulation | concentration at which the current was potentiated [4]: 10 nM | maximal positive modulation of GABA-induced current ([4]; maximum at 30 μM (ELB139), at 1 μM (diazepam)): 2±0.05 fold | Potentiation* (Diazepam) ([4]; with GABA EC20, graphically determined): 2 ± 0.05 | maximal positive modulation of GABA-induced current ([5]; α1-containing receptors, maximum at 30 μM (ELB139), at 1 μM (diazepam)): 2.2±0.9 fold | Potentiation* (Diazepam) ([5]; α1β2γ2, with GABA EC20, graphically determined): 2.2 ± 0.9 | concentrations at which positive current modulation was observable ([6]; α3-containing receptors): below 10 nM | Potentiation* (Diazepam) ([6]; α3β2γ2, with GABA EC20, graphically determined): 1.8 ± 0.11

O=C(CCCN1CCC(O)(c2ccc(Cl)cc2)CC1)c1ccc(F)cc1 [Haloperidol, 4-(4-[4-chlorophenyl]-4-hydroxy-1-piperidinyl)-1-(4-fluorophenyl)-1-nutanone, reference compound]
all symptoms induced by MK-801 [7]: significantly reduced all symptoms | MK-801-induced ataxia, combination with flumazenil [8, 11]: significantly reversed | effects on activity, distance, sniffing and other stereotypies when flumazenil is added [8, 11]: not affected | MK-801-induced ataxia ([8]; haloperidol 0.5 mg/kg i.p. alone, MK-801 0.1 mg/kg i.p.): only marginally reduced | MK-801-increased activity [8, 12]: significantly reversed | MK-801-increased distance travelled [8, 12]: significantly reversed | MK-801-induced other stereotypies [8, 12]: slightly reduced | MK-801-induced sniffing (stereotypies) [8, 12]: significantly reversed

Cn1c2ccc(F)cc2c2c(C(=O)N3CCCC3)cn(-c3ccccc3)c(=O)c21 [SL651498]
partial agonistic activity (alpha 2 receptors): 100% | partial agonistic activity [9]: 40-50% | activity (alpha 3 receptors): 70% | partial agonistic activity [10]: 40-50%

CCCC(CCC)C(=O)O [Valproate]
effect on 5-HT release / extracellular 5-HT in the brain [1]: enhances

CNCCC(Oc1ccc(C(F)(F)F)cc1)c1ccccc1 (stereo not drawn) [fluoxetine, N-methyl-γ-[4-(trifluoromethyl)phenoxy] benzenepropanamine, reference compound]
climbing behaviour (male Wistar rats): not changed | swimming time (male Wistar rats): increased | time spent immobile (male Wistar rats): reduced

NCC1(CC(=O)O)CCCCC1 [gabapentin]
effect on 5-HT release / extracellular 5-HT in the brain [1]: decrease

O=C1NC(=O)C(c2ccccc2)(c2ccccc2)N1 [phenytoin]
effect on 5-HT release / extracellular 5-HT in the brain [1]: decrease
